Measured values from patent US4107424A, “1-N-[(S)-α-hydroxy-ω-aminoacyl] derivatives of 3',4'-dideoxykanamycin B and 3'-deoxykanamycin B antibiotics” (Zaidan Hojin Biseibutsu Kagaku Kenkyu Kai, priority 1972, dated 1978).
Converted amounts (≈) assume the structure as drawn. Read-outs that look alike come from different tables or passages of the source.

Assays:
[1] = test system: Escherichia coli J 5 R 11-2; assay: Minimal inhibitory concentration, agar dilution streak method; assay type: cell-based; conditions: J5R112, 18 h, read-out: Minimal inhibitory concentration
Description: (§1) [α]D^22 + 38°, (c 0.85, water).
(§2) *Agar Agar dilution streak method (nutrient agar, 37° C, 18 hours)
(§3) *Agar dilution streak method (nutrient agar, 37° C, 18 hours).

[2] = test system: Pseudomonas aeruginosa 99; assay: as above; assay type: cell-based; conditions: nutrient agar, 37° C, 18 hours, read-out: Minimal inhibitory concentration
Description: as §1, §2, §3

[3] = test system: Klebsiella pneumoniae PCI 602; assay: as above; assay type: cell-based; conditions: PCI602, nutrient agar, 37° C, 18 hours
Description: as §1, §2, §3

[4] = test system: Escherichia coli K-12 R-5; assay: as above; assay type: cell-based; conditions: K12R5, nutrient agar, 37° C, 18 hours
Description: as §1, §2, §3

Proteus rettgeri GN 311 = assay: as above; assay type: cell-based; conditions: Providencia rettgeri, GN311; nutrient agar, 37° C, 18 hours
Description: as §1, §2, §3

[5] = test system: Escherichia coli K-12 C 600 R 135; assay: as above; assay type: cell-based; conditions: 18 h, read-out: Minimal inhibitory concentration
Description: as §1, §2, §3

Salmonella typhosa T-63 = assay: as above; assay type: cell-based; conditions: Salmonella enterica, nutrient agar, 37° C, 18 hours
Description: as §1, §2, §3

[6] = test system: Bacillus subtilis NRRL B-558; assay: as above; assay type: cell-based; conditions: NRRLB558, nutrient agar, 37° C, 18 hours
Description: as §1, §2, §3

Escherichia coli NIHJ = assay: as above; assay type: cell-based; conditions: nutrient agar, 37° C, 18 hours
Description: as §1, §2, §3

Proteus rettgeri GN 466 = assay: as above; assay type: cell-based; conditions: Providencia rettgeri, GN466; nutrient agar, 37° C, 18 hours
Description: as §1, §2, §3

Sarcina lutea PCI 1001 = assay: as above; assay type: cell-based; conditions: Micrococcus luteus, read-out: Minimal inhibitory concentration
Description: as §1, §2, §3

[7] = test system: Mycobacterium smegmatis ATCC 607; assay: as above; assay type: cell-based; conditions: Mycolicibacterium smegmatis, ATCC607, nutrient agar, 37° C
[8] = test system: Escherichia coli K-12 LA 290 R 55; assay: as above; assay type: cell-based; conditions: 18 h, read-out: Minimal inhibitory concentration
Description: as §2, §3

[9] = test system: Pseudomonas aeruginosa A 3; assay: as above; assay type: cell-based; conditions: A3, nutrient agar, 37° C, 18 hours, read-out: Minimal inhibitory concentration
Description: as §2, §3

[10] = test system: Escherichia coli K-12 ML 1629; assay: as above; assay type: cell-based; conditions: K12ML1629, nutrient agar, 37° C, 18 hours, read-out: Minimal inhibitory concentration
Description: as §2, §3

Escherichia coli K-12 = assay: as above; assay type: cell-based; conditions: K12, nutrient agar, 37° C, 18 hours, read-out: Minimal inhibitory concentration
Description: as §2, §3

[11] = test system: Pseudomonas aeruginosa TI-13; assay: as above; assay type: cell-based; conditions: TI13, nutrient agar, 37° C, 18 hours, read-out: Minimal inhibitory concentration
Description: as §2, §3

[12] = test system: Escherichia coli K-12 W 677; assay: as above; assay type: cell-based; conditions: K12W677, nutrient agar, 37° C, 18 hours, read-out: Minimal inhibitory concentration
Description: as §2, §3

[13] = test system: Escherichia coli K-12 ML 1410; assay: as above; assay type: cell-based; conditions: K12ML1410, nutrient agar, 37° C, 18 hours, read-out: Minimal inhibitory concentration
Description: as §2, §3

[14] = test system: Escherichia coli K-12 JR 66/W 677; assay: as above; assay type: cell-based; conditions: for MIC: Escherichia coli, 18 h, read-out: Minimal inhibitory concentration
Description: as §2, §3

[15] = test system: Staphylococcus aureus FDA 209P; assay: as above; assay type: cell-based; conditions: FDA209P, nutrient agar, 37° C, 18 hours, read-out: Minimal inhibitory concentration
Description: as §2, §3

[16] = test system: Escherichia coli K-12 LA 290 R 56; assay: as above; assay type: cell-based; conditions: 18 h, read-out: Minimal inhibitory concentration
Description: as §2, §3

[17] = test system: Escherichia coli K-12 ML 1630; assay: as above; assay type: cell-based; conditions: K12ML1630, nutrient agar, 37° C, 18 hours, read-out: Minimal inhibitory concentration
Description: as §2, §3

[18] = test system: Klebsiella pneumoniae type 22 #3038; assay: as above; assay type: cell-based; conditions: for MIC: Klebsiella pneumoniae, nutrient agar, 37° C, 18 hours
Description: as §2, §3

[19] = test system: Escherichia coli K-12 LA 290 R 64; assay: as above; assay type: cell-based; conditions: nutrient agar, 37° C, 18 hours, read-out: Minimal inhibitory concentration
Description: as §2, §3

[20] = test system: Escherichia coli K-12 ML 1410 R 81; assay: as above; assay type: cell-based; conditions: 18 h, read-out: Minimal inhibitory concentration
Description: as §2, §3

[21] = test system: Pseudomonas aeruginosa GN 315; assay: as above; assay type: cell-based; conditions: GN315, nutrient agar, 37° C, 18 hours, read-out: Minimal inhibitory concentration
Description: as §2, §3

[22] = test system: Pseudomonas aeruginosa No.12; assay: as above; assay type: cell-based; conditions: nutrient agar, 37° C, 18 hours, read-out: Minimal inhibitory concentration
Description: as §2, §3

[23] = test system: kanamycin-resistant strains; conditions: cited from earlier work
[24] = test system: Klebsiella pneumoniae PCI 1602; assay: Minimum inhibitory concentration, serial dilution method; assay type: cell-based; conditions: PCI1602, 18 h, read-out: Minimum inhibitory concentrations
[25] = test system: Bacillus subtilis PCI 219; assay: as above; assay type: cell-based; conditions: PCI219, 18 h, read-out: Minimum inhibitory concentrations
[26] = test system: Bacillus cereus ATCC 10702; assay: as above; assay type: cell-based; conditions: ATCC10702, nutrient agar, 37° C, 18 hours, read-out: Minimum inhibitory concentrations
Bacillus anthracis = assay: microbe, parasite or virus in culture; assay type: cell-based; conditions: 18 h, read-out: Minimum inhibitory concentrations
[27] = test system: Corynebacterium bovis 1810; assay: Minimum inhibitory concentration, serial dilution method; assay type: cell-based; conditions: Corynebacterium bovis, 1810, 18 h, read-out: Minimum inhibitory concentrations
[28] = test system: Staphylococcus aureus Smith; assay: as above; assay type: cell-based; conditions: 18 h, read-out: Minimum inhibitory concentrations
[29] = test system: Shigella flexneri 4b JS 11811; assay: as above; assay type: cell-based; conditions: 4BJS11811, nutrient agar, 37° C, 18 hours, read-out: Minimum inhibitory concentrations
[30] = test system: Salmonella enteritidis 1891; assay: as above; assay type: cell-based; conditions: Salmonella enterica, nutrient agar, 37° C, 18 hours, read-out: Minimum inhibitory concentrations
Shigella sonnei JS 11746 = assay: as above; assay type: cell-based; conditions: JS11746, nutrient agar, 37° C, 18 hours, read-out: Minimum inhibitory concentrations
[31] = test system: Shigella dysenteriae JS 11910; assay: as above; assay type: cell-based; conditions: JS11910, 18 h, read-out: Minimum inhibitory concentrations
[32] = test system: Staphylococcus aureus Terajima; assay: as above; assay type: cell-based; conditions: 18 h, read-out: Minimum inhibitory concentrations
Proetus vulgaris OX 19 = assay: as above; assay type: cell-based; conditions: nutrient agar, 37° C, 18 hours; read-out: Minimum inhibitory concentrations
[33] = PCI1001, nutrient agar, 37° C, 18 hours
[34] = 48 hours, read-out: Minimal inhibitory concentration
[35] = strain resistant to butirosin B

Row | SMILES | MIC [2] [µg/mL] | MIC [4] [µg/mL] | MIC (Salmonella typhosa T-63) [µg/mL] | MIC (Escherichia coli NIHJ) [µg/mL] | MIC [8] [µg/mL] | MIC [9] [µg/mL] | MIC [10] [µg/mL] | MIC (Escherichia coli K-12) [µg/mL] | MIC [11] [µg/mL] | MIC [12] [µg/mL] | MIC [13] [µg/mL] | MIC [14] [µg/mL] | MIC [15] [µg/mL] | MIC [16] [µg/mL] | MIC [17] [µg/mL] | MIC [18] [µg/mL] | MIC [19] [µg/mL] | MIC [20] [µg/mL] | MIC [21] [µg/mL] | MIC [22] [µg/mL] | further results
1 | NC[C@@H]1CC[C@@H](N)[C@@H](O[C@H]2[C@H](O)[C@@H](O)[C@H](N)C[C@@H]2N)O1 [3',4'-dideoxyneamine] | 50 (≈ 172 µM) | 50 (≈ 172 µM) | 3.12 (≈ 10.7 µM) | 12.5 (≈ 43 µM) | 6.25 (≈ 21.5 µM) | 25 (≈ 86.1 µM) | 12.5 (≈ 43 µM) | 6.25 (≈ 21.5 µM) | 25 (≈ 86.1 µM) | 6.25 (≈ 21.5 µM) | 6.25 (≈ 21.5 µM) | 25 (≈ 86.1 µM) | 6.25 (≈ 21.5 µM) | 6.25 (≈ 21.5 µM) | 12.5 (≈ 43 µM) | 25 (≈ 86.1 µM) | 12.5 (≈ 43 µM) | 25 (≈ 86.1 µM) | > 100 | 25 (≈ 86.1 µM) | MIC [1]: 6.25 µg/mL (≈ 21.5 µM); MIC [3]: 25 µg/mL (≈ 86.1 µM); MIC (Proteus rettgeri GN 311): 50 µg/mL (≈ 172 µM); MIC [5]: 12.5 µg/mL (≈ 43 µM); MIC [6]: 0.39 µg/mL (≈ 1.34 µM); MIC (Proteus rettgeri GN 466): 25 µg/mL (≈ 86.1 µM); MIC (Sarcina lutea PCI 1001; [33]): 50 µg/mL (≈ 172 µM); MIC [7, 34]: 25 µg/mL (≈ 86.1 µM); activity against kanamycin-resistant strains ([23]; strains producing 3'-hydroxyl phosphorylating enzyme): actually effective
2 | NCC[C@H](O)C(=O)N[C@@H]1C[C@H](N)[C@@H](O[C@H]2O[C@H](CN)[C@@H](O)[C@H](O)[C@H]2N)[C@H](O[C@@H]2O[C@H](CO)[C@@H](O)[C@H]2O)[C@H]1O [Butirosin B, 1-N-[(S)-α-hydroxy-γ-amino-n-butyryl]-ribostamycin] | 50 (≈ 90 µM) | 6.25 (≈ 11.2 µM) | 0.39 (≈ 0.702 µM) | 3.12 (≈ 5.62 µM) | 0.78 (≈ 1.4 µM) | 3.12 (≈ 5.62 µM) | 1.56 (≈ 2.81 µM) | 0.78 (≈ 1.4 µM) | 25 (≈ 45 µM) | 0.39 (≈ 0.702 µM) | 0.78 (≈ 1.4 µM) | > 100 | 1.56 (≈ 2.81 µM) | 0.78 (≈ 1.4 µM) | 1.56 (≈ 2.81 µM) | > 100 | 0.78 (≈ 1.4 µM) | 3.12 (≈ 5.62 µM) | > 100 | 6.25 (≈ 11.2 µM) | MIC [1]: 1.56 µg/mL (≈ 2.81 µM); MIC [3]: 0.78 µg/mL (≈ 1.4 µM); MIC (Proteus rettgeri GN 311): 6.25 µg/mL (≈ 11.2 µM); MIC [5]: 0.78 µg/mL (≈ 1.4 µM); MIC [6]: 0.39 µg/mL (≈ 0.702 µM); MIC (Proteus rettgeri GN 466): 3.12 µg/mL (≈ 5.62 µM); MIC (Sarcina lutea PCI 1001; [33]): 50 µg/mL (≈ 90 µM); MIC [7, 34]: 0.78 µg/mL (≈ 1.4 µM); effectiveness against Escherichia coli K-12 JR 66/W 677 [14, 35]: resistant to butirosin B; effectiveness against Klebsiella pneumoniae type 22 #3038 [18, 35]: resistant to butirosin B; activity against kanamycin- and ribostamycin-resistant bacteria [23]: active against some kanamycin- and ribostamycin-resistant bacteria
3 | NC[C@H]1O[C@H](O[C@H]2[C@H](O)[C@@H](O[C@H]3O[C@H](CO)[C@@H](O)[C@H](N)[C@H]3O)[C@H](N)C[C@@H]2N)[C@H](N)[C@@H](O)[C@@H]1O [Kanamycin B, kanamycin B] | > 100 | 1.56 (≈ 3.23 µM) | 0.2 (≈ 0.414 µM) | 0.78 (≈ 1.61 µM) | 12.5 (≈ 25.9 µM) | 50 (≈ 103 µM) | > 100 | 0.78 (≈ 1.61 µM) | 100 (≈ 207 µM) | 0.39 (≈ 0.807 µM) | 0.78 (≈ 1.61 µM) | > 100 | 0.39 (≈ 0.807 µM) | 3.13 (≈ 6.47 µM) | > 100 | > 100 | 3.13 (≈ 6.47 µM) | > 100 | > 100 | 12.5 (≈ 25.9 µM) | MIC [24]: 0.78 µg/mL (≈ 1.61 µM); MIC [25]: < 0.2 µg/mL; MIC [26]: 0.78 µg/mL (≈ 1.61 µM); MIC (Sarcina lutea PCI 1001; PCI1001, 18 h): 1.56 µg/mL (≈ 3.23 µM); MIC ([7]; 18 hours, read-out: Minimum inhibitory concentrations): 0.78 µg/mL (≈ 1.61 µM); MIC (Bacillus anthracis): < 0.2 µg/mL; MIC [27]: 1.56 µg/mL (≈ 3.23 µM); MIC [28]: < 0.2 µg/mL; MIC [29]: 3.13 µg/mL (≈ 6.47 µM); MIC [30]: 1.56 µg/mL (≈ 3.23 µM); MIC (Shigella sonnei JS 11746): 1.56 µg/mL (≈ 3.23 µM); MIC [31]: 3.13 µg/mL (≈ 6.47 µM); MIC [32]: < 0.2 µg/mL; MIC (Proetus vulgaris OX 19): 0.78 µg/mL (≈ 1.61 µM)
